Common to all, as to assay: NCI anticancer screen, dose series, 48 h
Assay [1] deals with 786-0.
The subject of assay [2] is CAKI-1.
Assay [3] deals with COLO 205.
The subject of assay [4] is DU-145.
Assay [5] deals with HCT-116.
Assay [6] has as its system HCT-15.
Assay [7] deals with HL-60.
Assay [8] concerns HT-29.
Assay [9] relates to NCI-H226.
For assay [10], the system named is NCI-H460.
The test system of assay [11] is OVCAR-4.
In assay [12] the test system is PC-3.
Assay [13] has as its system RPMI-8226.
Assay [14] concerns RXF 393.
Assay [15] concerns SF-268.
The subject of assay [16] is SW-620.
The test system of assay [17] is UACC-257.
The subject of assay [18] is UO-31.
The test system of assay [19] is OVCAR-3.

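Protocol summary: plate cells (96-well), add compound at 5 concentrations, incubate 48 h, interpolate endpoints linearly. GI50: concentration for 50% inhibition of growth.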 The source made the active and inactive calls. Rule as the data show it: active = GI50 up to about 1.1 µM and inactive = higher.

With `Clc1nc(Nc2nc3ccccc3[nH]2)nc(Cl)c1-c1ccccc1`, the GI50 in assay [1] was 16.1 µM (inactive); in assay [2], 31.1 µM (inactive); in assay [3] it was 19.1 µM (inactive); in assay [4], 74.3 µM (inactive); in [5], 21.1 µM (inactive); in assay [6], 14.4 µM. In addition, the GI50 in assay [7] was 36.1 µM (inactive); in assay [8] it was 16.8 µM (inactive); in assay [9], 20.5 µM (inactive); in [10], 12.2 µM (inactive); in assay [11], 14.8 µM (inactive); in assay [12], 23 µM (inactive). In addition, the GI50 was 34.3 µM (inactive) in assay [13]; 16.9 µM (inactive) in assay [14]; 33 µM (inactive) in assay [15]; 11.2 µM (inactive) in [16]; 29.7 µM (inactive) in assay [17]; 20.8 µM (inactive) in [18].

In the case of `CCCCSC1=N/C(=C\c2ccco2)C(Cl)=N1`, the GI50 in assay [1] is > 100 µM (inactive); in [2], > 100 µM (inactive); in assay [3], > 100 µM (inactive); in assay [4], > 100 µM (inactive); in assay [5], > 100 µM (inactive); in [6] it was more than 100 µM. Besides, the GI50 in [7], in assay [8], in [9], in assay [10], in assay [19] and in assay [11] was > 100 µM (inactive) in each case. For the same compound, the GI50 in [12], in assay [13], in [14], in assay [15], in assay [16] and in assay [17] was > 100 µM (inactive) each time. Moreover, the GI50 in assay [18] was > 100 µM (inactive).

On to `CCC(=O)N1C(=O)C(CC)(CC)C(=O)N1C(=O)CC`, for which the GI50 in assay [1] was > 100 µM (inactive); in [2], > 100 µM (inactive); in assay [3] it was > 100 µM (inactive); in assay [4], > 100 µM (inactive); in [5], > 100 µM (inactive); in assay [6] it was more than 100 µM. Further, the GI50 in [7], in assay [8], in assay [9], in [10], in assay [19] and in assay [11] was > 100 µM (inactive) each time. The GI50 in assay [12], in assay [13], in [14], in assay [15], in assay [16] and in assay [17] was > 100 µM (inactive) each time. Moreover, in assay [18], the GI50 is > 100 µM (inactive).

With `Cc1ccc(NC(=O)CC(=O)N2N=C(N(c3ccccc3)c3ccccc3)CC2c2ccccc2)cc1` (stereo not given), the GI50 is > 100 µM (inactive) in [1]; > 100 µM (inactive) in [2]; > 100 µM (inactive) in assay [3]; > 100 µM (inactive) in assay [4]; > 100 µM (inactive) in [5]; more than 100 µM in assay [6]. The GI50 in [7], in assay [8], in assay [9], in assay [10], in [19] and in assay [11] was > 100 µM (inactive) throughout. In addition, the GI50 in assay [12] was 85.7 µM (inactive); in [13], > 100 µM (inactive); in [14] it was 52.8 µM (inactive); in [15] it was 75.7 µM (inactive); in [16], > 100 µM (inactive); in assay [17], > 100 µM (inactive). Further, the GI50 in [18] is > 100 µM (inactive).

Source of the values: ChEMBL document CHEMBL1201862, “PubChem BioAssay data set” (2004).
